{"source": "paper PMC6276509", "about": "“Evaluation of Tyrosinase Inhibitory, Antioxidant, Antimicrobial, and Antiaging Activities of Magnolia officinalis Extracts after Aspergillus niger Fermentation” (BioMed Research International, 2018)", "biological_target": "T1, Mushroom tyrosinase", "T1 construct": "gene PPO3; commercial native mushroom tyrosinase (Sigma), isoenzyme mixture", "test": "absorbance at […] nm, […] min", "assay_type": "biochemical", "details": "L-tyrosine substrate (1 mL of 100 mg/L); sodium phosphate buffer; DMSO stock; alpha or beta anomer not stated", "data": [{"smiles": "OC[C@H]1O[C@@H](Oc2ccc(O)cc2)[C@H](O)[C@@H](O)[C@@H]1O", "note": "[arbutin]", "values": [{"measurement": "IC50", "value": "56 ± 12", "unit": "µg/mL"}]}]}
